What was measured:
[1] = biological target: T1, Dipeptidase 1 (Sus scrofa) (UniProt P22412); experiment: The catalytic constant of the enzyme Renal dipeptidase was reported.
T1 sequence (whole entry): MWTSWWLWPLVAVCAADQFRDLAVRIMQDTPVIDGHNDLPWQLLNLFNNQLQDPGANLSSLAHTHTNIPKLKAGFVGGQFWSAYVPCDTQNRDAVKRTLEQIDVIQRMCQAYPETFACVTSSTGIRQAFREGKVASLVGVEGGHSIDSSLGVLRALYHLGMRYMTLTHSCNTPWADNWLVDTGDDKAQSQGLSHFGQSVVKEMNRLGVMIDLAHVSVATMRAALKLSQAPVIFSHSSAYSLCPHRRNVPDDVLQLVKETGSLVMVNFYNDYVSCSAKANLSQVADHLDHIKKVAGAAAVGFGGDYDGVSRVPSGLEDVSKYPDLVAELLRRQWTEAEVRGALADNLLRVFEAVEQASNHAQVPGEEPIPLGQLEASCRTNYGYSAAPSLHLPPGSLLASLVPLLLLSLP

[2] = biological target: T1, Dipeptidase 1 (Sus scrofa); experiment: The catalytic constant of the enzyme Inactivator of Renal dipeptidase was reported.
[3] = biological target: T1, Dipeptidase 1 (Sus scrofa); experiment: The double -reciprocal analysis of the pseudo-first -order inactivation rates verses the inhibitor concentrations were calculated for Inactivator of Renal dipeptidase
[4] = biological target: T1, Dipeptidase 1 (Sus scrofa); experiment: The double -reciprocal analysis of the pseudo-first -order inactivation rates verses the inhibitor concentrations were calculated for Renal dipeptidase
[5] = compound: C=C(NC(=O)CC#N)C(=O)O; experiment: Michaelis-Menten constant was reported for the compound against Inactivator of Renal dipeptidase
[6] = substrate: C=C(CC(=O)CC#N)C(=O)O; experiment: (§1) Michaelis-Menten constant was reported for the compound against Renal dipeptidase
[7] = substrate: C=C(NC(=O)CBr)C(=O)O; experiment: as §1

C=C(NC(=O)CBr)C(=O)O
k cat [1]: 0.538 s⁻¹

C=C(NC(=O)CC#N)C(=O)O
k cat [2]: 0.25 s⁻¹
K inact [3]: 0.277 min⁻¹

C=C(CC(=O)CC#N)C(=O)O
k cat [1]: 0.55 s⁻¹
K inact [4]: 0.151 min⁻¹

B1: Dipeptidase 1 (Sus scrofa), P22412 (protein)
chain: T1 sequence (whole entry)
Km [5]: 416 µM
Km [6]: 10300 µM
Km [7]: 740 µM

Reference: ChEMBL document CHEMBL1125268, “Targeting renal dipeptidase (dehydropeptidase I) for inactivation by mechanism-based inactivators” (J Med Chem, 1991)
